Source: patent US20060241067A1, “Methods For inhibiting angiogenesis, cell migration, cell adhesion, and cell survival” (priority 2002, published 2006)

Key:
[1] = test system: Human umbilical vein endothelial cells (HUVEC); test: Endothelial cell migration assay (transwell) on ECM substrates; format: cell-based
Procedure: Human umbilical vein endothelial cells (HUVEC) were grown in Endothelial Growth Medium (containing 2% fetal bovine serum, bFGF and VEGF) (Clonetics, San Diego, Calif.). To render HUVECs quiescent for Rac and/or Rho assays, monolayers of endothelial cells were incubated for 18 hrs in Endothelial Basal Medium supplemented with 0.1% serum (Clonetics). Cell migration and adhesion assays on ECM substrates were performed as previously described in Kim et al. (S. Kim et al., Amer. J. Biol. Chem., 275:33920-33928 (2000); and S. Kim et al., Amer. J. Path., 156:1345-1362 (2000)).
Migration assays were performed essentially as described (Kim, et. al., 2000). […] HUVECS (25,000) were added to the upper chamber of inserts in migration buffer (Hepes buffered M199 medium containing 1% BSA, 2 mM MgCl2, 2 mM CaCl2 and 0.2 mM MnCl2) containing 25 μg/ml of various antibodies. In some experiments, 250 μM dibutyryl cAMP was placed in the upper and lower chambers of the transwell. Cells were allowed to migrate from the upper to the lower chamber for four hours at 37° C. The number of cells which had migrated were counted in three representative high power (200×) fields per insert. The data are presented as number of cells migrating+/−standard error of the mean. Migration assays were similarly performed on transfected cells. In this case, migrated transfected cells were identified by fluorescent microscopy and counted.

[2] = test system: bFGF-stimulated angiogenesis in the mouse; test: Murine matrigel angiogenesis assay; format: in vivo, nude mice; details: bFGF matrigel with peptide, subcutaneous
[3] = test system: chick chorioallantoic membrane (CAM); test: Chick chorioallantoic membrane (CAM) angiogenesis assay; format: in vivo, chicken; details: bFGF stimulated CAMs

With AVSEHQLLHS/D [PTHrP 1-10] the “endothelial cell migration on vitronectin” value ([1]; 1 μM peptide) was “similarly effective in inhibiting cell migration on vitronectin”, the “maximum inhibition of cell migration” value ([1]; at a concentration of 10 μM) was 50% and the “angiogenesis in matrigel plugs (fluorescence intensity of lectin)” value [2] was “effective in inhibiting angiogenesis in a mouse model of angiogenesis”. The “effectiveness at inhibiting angiogenesis relative to PTHrP 1-34” value ([3]; 1 μM) was “slightly less effective” and the “angiogenesis (blood vessel branch points, vessel density)” value ([3]; 1 μM peptide) was “effective in inhibiting angiogenesis in the CAM assay”.
